Data taken from US9913789B2, “Formulations containing sphinganine” (Evonik Degussa GmbH, priority 2013, dated 2018).

Legend:
[1] = tested on: human follicular dermal papilla cells (HFDPCs); test: MTT assay, stimulation of proliferation of human follicular dermal papilla cells; type: cell-based; details: sphinganine 0.3 μg/ml; creatine 10 μg/ml; caffeine 10 μg/ml; 0.1% (v/v) ethanol; incubation 24 hours
Method: The cells were sown in a cell density of about 6300 cells/cm^2 in a T75 bottle with follicle dermal papilla cell growth medium (for short: growth medium) and then incubated at 37° C., 5% CO2. After 1 day, media exchange was carried out. After a further 3 days, the medium was removed, the cells were washed with PBS (phosphate buffered saline) (without Mg^2+ and Ca^2+), detached by accutase treatment; the cell count is determined and then the cells are sown in a concentration of about 5500 cells/cm^2 in new T75 bottles in growth medium and further cultivated under identical conditions as described above. After 1 and 3 days, media exchange was carried out. After 1 further day, the medium was removed, the cells were washed in PBS (without Mg^2+ and Ca^2+), detached by accutase treatment and then sown in a concentration of about 10 000 cells/cm^2 into the cavities of 6-well cell culture plates with 2.5 ml of growth medium in each case. After 1 day, media exchange was carried out, and the test substances—diluted in fresh medium—were applied. […] All cultivations were carried out in the presence of 0.1% (v/v) ethanol and a corresponding vehicle control was performed at the same time. After incubation for 24 hours, an MTT assay was carried out. The activity in the MTT test indicates the activity of the mitochondrial dehydrogenase and is a marker for the cell vitality and the proliferation capacity. Firstly, a 10 mg/ml stock solution of the MTT reagent (Thiazolyl Blue Tetrazolium Bromide, Sigma Aldrich M5655) in PBS was prepared. The stock solution was then diluted with growth medium to an end concentration of 1 mg/ml MTT reagent. The cells were washed with PBS (without Mg^2+ and Ca^2+) and incubated with 1 ml of growth medium with MTT reagent for 3 h at 37° C. […] The absorption of the extracts was determined by spectrophotometry at a wavelength of 550 nm. The optical density of the extracts from the cells treated only with the vehicle is regarded as the reference (100%), all of the other measured values are quantified relative to the reference sample.

ex vivo hair follicles = ex vivo hair follicles kept in culture; EP0790053; cited from earlier work
[2] = tested on: in vitro cultivated keratinocytes; details: EP0790053; cited from earlier work

Compound | cell proliferation (MTT, optical density at 550 nm relative to vehicle control = 100%) [1] [%] | lifespan of the hair follicles (ex vivo hair follicles) | effect on growth of keratinocytes [2]
CCCCCCCCCCCCCCC[C@@H](O)[C@@H](N)CO [sphinganine] | 103.9 | increases the lifespan of the hair follicles | growth-promoting effect
CN(CC(=O)O)C(=N)N [creatine] | 104.0 | – | –
Cn1c(=O)c2c(ncn2C)n(C)c1=O [caffeine] | 102.5 | – | –
